In patent publication US8993041B2, “Taste masked active pharmaceutical powder compositions and processes for making them” (New Jersey Institute of Technology, priority 2012, dated 2015):

Key:
[1] = Angle of repose (AoR/AOR) of powder; format: physicochemical
Text: Both of these ibuprofen powders could not be fluidized sufficiently prior to coating, yet both of the coated ibuprofen particles were well fluidized after dry coating.
The operating conditions for coating step 2 may be established by a skilled person giving consideration, for example, to particle agglomeration and providing reduced angle of repose (AOR) values for the coated API powder. The degree of particle agglomeration may be determined by measuring the size of the coated particles in SEM images. The degree of agglomeration may also be estimated using the dispersion pressure titration in the Rodos/Helos system (Rodos and Helos, Sympatec, Lawrenceville, N.J., USA). A discussion of the pressure titration may be found in Han, X., Ghoroi, C., To, D., Chen, Y., Davë, R., “Simultaneous micronization and surface modification for improvement of flow and dissolution of drug particles (2011).” International Journal of Pharmaceutics, vol. 415, pp. 185-195, which is incorporated in its entirety by reference. The AOR may be measured using the procedure of ASTM D6393-99, “Bulk Solids Characterization by CARR Indices.” For example, when the Comil is used, the impeller speed may be optimized to reduce the agglomeration (FIG. 3) as higher impeller speed […] agglomerate size for the silica coated API powders.
M5P hydrophilic silica has a particle size of 20 nm and is manufactured by Cabot

[2] = Flow function coefficient (FFC), shear cell of FT 4 tester; format: physicochemical
[3] = finer ibuprofen powder, median size about 41 micron

## CC(C)Cc1ccc(C(C)C(=O)O)cc1 (centres unmarked) [ibuprofen]
[1]; [3]
  AoR: about 58 degrees
[1]; flow properties of ibuprofen before and after dry coating with silica
  AOR: 55 °
[1]; ibuprofen median particle size about 74 micron, Hosokawa Powder Tester, ASTM D6393-08
  AoR: about 55 degrees
[2]; [3]
  FFC: about 2.8
[2]; ibuprofen median particle size about 74 micron, pre-consolidation of 3 kPa
  FFC: about 5
